Reference: the CheMixHub ionic liquid set
± gives the uncertainty stated by the source.

Assay: xn = mol fraction of the nth substance listed

C[N+](CCO)(CCO)CCOCCO.[Cl-] + NC(N)=O
100 kPa, x1 = 0.5
Details | viscosity [mPa·s]
328.15 K | 560 ± 32
343.15 K | 221 ± 8
348.15 K | 169 ± 6
353.15 K | 131 ± 4

CCCCCCCCCC(=O)[O-].CCCCCCCCCCCCCC[P+](CCCCCC)(CCCCCC)CCCCCC + O
Details | viscosity [mPa·s]
358.15 K, 100 kPa, x2 = 0.872 | 9.345 ± 0.073

CO + C[N+](C)(CCCS(=O)(=O)O)C1CCCCC1.Cc1ccc(S(=O)(=O)[O-])cc1
101 kPa, x2 = 0
Details | viscosity [mPa·s]
303.15 K | 0.5044
308.15 K | 0.4775
313.15 K | 0.4515
318.15 K | 0.4244
323.15 K | 0.4033
328.15 K | 0.3883

CC[n+]1ccn(C)c1.O=S(=O)([N-]S(=O)(=O)C(F)(F)F)C(F)(F)F + F[P-](F)(F)(F)(F)F.[Li+]
101 kPa, x1 = 1
Details | electrical conductivity [S/m]
288.15 K | 0.611 ± 0.061
298.15 K | 0.883 ± 0.089
333.15 K | 2.18 ± 0.22

CO + CS(=O)(=O)[O-].C[N+](C)(CCO)CCO
101 kPa, x2 = 0
Details | viscosity [mPa·s]
298.15 K | 0.576 ± 0.038
303.15 K | 0.539 ± 0.035
308.15 K | 0.506 ± 0.033
313.15 K | 0.477 ± 0.031
318.15 K | 0.453 ± 0.03
323.15 K | 0.43 ± 0.03

ClCCl + CCCC[n+]1ccn(C)c1.O=S(=O)([N-]S(=O)(=O)C(F)(F)F)C(F)(F)F
298 K, 101 kPa
Details | electrical conductivity [S/m]
x1 = 0.8744 | 1.36 ± 0.1
x1 = 0.9287 | 0.98 ± 0.1
x1 = 0.9459 | 0.797 ± 0.095

CC[n+]1ccn(C)c1.O=S(=O)([N-]S(=O)(=O)C(F)(F)F)C(F)(F)F + CC1COC(=O)O1
101.3 kPa
Details | viscosity [mPa·s]
288.15 K, x1 = 0.7977 | 34.2 ± 0.71
293.15 K, x1 = 0.3007 | 8.42 ± 0.18
293.15 K, x1 = 1 | 39.06 ± 0.82
298.15 K, x1 = 0.2127 | 5.58 ± 0.12
298.15 K, x1 = 0.7004 | 20.1 ± 0.42
303.15 K, x1 = 0.1 | 3.358 ± 0.071
303.15 K, x1 = 0.4227 | 8.98 ± 0.19
303.15 K, x1 = 0.7601 | 18.97 ± 0.4
308.15 K, x1 = 0.4227 | 7.89 ± 0.16
308.15 K, x1 = 0.6015 | 12.59 ± 0.26
308.15 K, x1 = 0.7601 | 16.83 ± 0.35
308.15 K, x1 = 1 | 23.19 ± 0.48
313.15 K, x1 = 0.7601 | 14.7 ± 0.31
313.15 K, x1 = 0.8098 | 16.11 ± 0.34
313.15 K, x1 = 1 | 19.94 ± 0.42
318.15 K, x1 = 0.3007 | 4.614 ± 0.097
318.15 K, x1 = 0.6015 | 9.46 ± 0.2
318.15 K, x1 = 0.7004 | 11.6 ± 0.24
318.15 K, x1 = 0.9533 | 16.99 ± 0.35
323.15 K, x1 = 0.6015 | 8.33 ± 0.17
328.15 K, x1 = 0.2127 | 3.014 ± 0.063
328.15 K, x1 = 0.4227 | 5.07 ± 0.11
328.15 K, x1 = 0.5146 | 6.11 ± 0.13
328.15 K, x1 = 0.7601 | 9.85 ± 0.21
328.15 K, x1 = 0.7977 | 10.52 ± 0.22
333.15 K, x1 = 0.1 | 1.979 ± 0.042
333.15 K, x1 = 0.3007 | 3.477 ± 0.073
333.15 K, x1 = 0.658 | 7.31 ± 0.15
333.15 K, x1 = 0.7004 | 7.92 ± 0.17
338.15 K, x1 = 0.1 | 1.838 ± 0.039
343.15 K, x1 = 0.5146 | 4.595 ± 0.096
343.15 K, x1 = 0.7601 | 6.96 ± 0.15
343.15 K, x1 = 0.7977 | 7.41 ± 0.15
343.15 K, x1 = 0.8098 | 7.59 ± 0.16
348.15 K, x1 = 0.1 | 1.599 ± 0.034
348.15 K, x1 = 0.2127 | 2.203 ± 0.047
348.15 K, x1 = 0.658 | 5.39 ± 0.11

CO + CCCCCCCCn1cc[n+](C)c1.[Cl-]
Details | viscosity [mPa·s]
313.15 K, 101 kPa, x1 = 1 | 0.444 ± 0.017

CC[n+]1ccn(C)c1.COP(=O)([O-])OC + CCO
Details | viscosity [mPa·s]
293.15 K, 100 kPa, x1 = 0.7006 | 121.4 ± 3
298.15 K, 100 kPa, x1 = 0.5013 | 37.58 ± 0.31
298.15 K, 100 kPa, x1 = 0.7006 | 95.5 ± 1.8
298.15 K, 100 kPa, x1 = 0.8011 | 141.3 ± 4
298.15 K, 101 kPa, x2 = 0.398 | 68.8 ± 1
298.15 K, 101 kPa, x2 = 0.598 | 23.29 ± 0.27
303.15 K, 100 kPa, x1 = 0.3007 | 10.67 ± 0.08
303.15 K, 100 kPa, x1 = 0.5994 | 48.5 ± 0.43
303.15 K, 101 kPa, x2 = 0.398 | 55.24 ± 0.56
308.15 K, 100 kPa, x1 = 1 | 134.2 ± 3.7
308.15 K, 101 kPa, x2 = 0.798 | 4.904 ± 0.056
313.15 K, 100 kPa, x1 = 0.3007 | 8.34 ± 0.06
313.15 K, 100 kPa, x1 = 0.5994 | 31.82 ± 0.28
313.15 K, 100 kPa, x1 = 1 | 102.6 ± 2.2
318.15 K, 100 kPa, x1 = 0.3007 | 7.45 ± 0.06
318.15 K, 101 kPa, x2 = 0.398 | 31.25 ± 0.36
318.15 K, 101 kPa, x2 = 0.598 | 12.92 ± 0.14
323.15 K, 100 kPa, x1 = 0.5013 | 15.7 ± 0.13
323.15 K, 100 kPa, x1 = 0.8011 | 38.59 ± 0.4
328.15 K, 100 kPa, x1 = 0.7006 | 25.53 ± 0.25
328.15 K, 101 kPa, x2 = 0.199 | 38.21 ± 0.45
333.15 K, 100 kPa, x1 = 0.1004 | 1.71 ± 0.02
333.15 K, 100 kPa, x1 = 0.7006 | 21.5 ± 0.21
333.15 K, 100 kPa, x1 = 1 | 41.05 ± 0.48
338.15 K, 100 kPa, x1 = 0.8988 | 26.44 ± 0.29

CO + CCCC[n+]1ccn(C)c1.F[B-](F)(F)F
101 kPa, x1 = 1
Details | viscosity [mPa·s]
303.15 K | 0.519 ± 0.008
333.15 K | 0.363 ± 0.006

CO/N=C(\C(=O)N[C@@H]1C(=O)N2C(C(=O)[O-])=C(CSc3nc(=O)c(=O)[n-]n3C)CS[C@H]12)c1csc(N)n1.[Na+].[Na+] + CCCC[n+]1ccc(C)cc1.[Br-] + O
viscosity [mPa·s], 100 kPa
Details | x1 = 0.0003495, x2 = 0 | x1 = 0.0008732, x2 = 0 | x1 = 0.001391, x2 = 0 | x1 = 0.002502, x2 = 0 | x1 = 0.00312, x2 = 0 | x1 = 0.003888, x2 = 0 | x1 = 0.004767, x2 = 0 | x1 = 0.005484, x2 = 0
288.15 K | 1.196 ± 0.049 | 1.273 ± 0.052 | 1.365 ± 0.056 | 1.604 ± 0.066 | 1.745 ± 0.072 | 1.964 ± 0.081 | 2.205 ± 0.091 | 2.45 ± 0.1
293.15 K | 1.053 ± 0.043 | 1.12 ± 0.046 | 1.2 ± 0.049 | 1.399 ± 0.057 | 1.527 ± 0.063 | 1.701 ± 0.07 | 1.918 ± 0.079 | 2.122 ± 0.087
298.15 K | 0.935 ± 0.038 | 0.994 ± 0.041 | 1.062 ± 0.044 | 1.231 ± 0.051 | 1.348 ± 0.055 | 1.495 ± 0.061 | 1.674 ± 0.069 | 1.858 ± 0.076
303.15 K | 0.829 ± 0.034 | 0.885 ± 0.036 | 0.945 ± 0.039 | 1.1 ± 0.045 | 1.195 ± 0.049 | 1.323 ± 0.054 | 1.48 ± 0.061 | 1.638 ± 0.067
308.15 K | 0.744 ± 0.031 | 0.794 ± 0.033 | 0.849 ± 0.035 | 0.982 ± 0.04 | 1.07 ± 0.044 | 1.184 ± 0.049 | 1.322 ± 0.054 | 1.455 ± 0.06
